Data: patent publication US10052320B2, “Substituted quinoxalines as FGFR kinase inhibitors” (ASTEX THERAPEUTICS LIMITED, priority 2011, dated 2018)
Where two headings read alike, the source gives them in different places.

Assays:
KDR (h) (VEGFR2) = KDR (h) (VEGFR2) (Homo sapiens, UniProt P35968); assay: KDR (VEGFR2) (enzymatic assay), TR-FRET; type: biochemical
Method: KDR (VEGFR2) (Enzymatic Assay)
In a final reaction volume of 30 μL, KDR (h) (150 ng/ml) was incubated with 50 mM HEPES pH 7.5, 6 mM MnCl2, 1 mM DTT, 0.1 mM Na3VO4, 0.01% Triton-X-100, 500 nM Btn-Flt3 and 3 μM ATP in the presence of compound (1% DMSO final). After incubation for 120 minutes at room temperature the reaction was stopped with 2.27 nM EU-anti P-Tyr, 7 mM EDTA, 31.25 nM SA-XL-665 and 0.02% BSA which was present for 60 minutes at room temperature. Time-Resolved Fluorescence Resonance Energy Transfer (TR-FRET) signal (ex340 nm. Em 620 nm, em 655 nm) was measured afterwards and results are expressed in RFU (Relative Fluorescence Units).

[1] = test system: Ba/F3-Flt3-transfected cells in the presence of 10 ng/ml murine IL3; assay: Ba/F3-Flt3 (plus IL3) cellular proliferation counterscreen, Alamar Blue; type: cell-based; details: for IC50: Mus musculus, read-out: BAF3-FLT3 (PLUS IL3) 384 well pIC50 (converted)
Method: (§1) Ba/F3-Flt3 (Minus IL3 or Plus IL3) (Cellular Proliferation Assay)
(§2) In a 384 well plate, 100 nl of compound dilution in DMSO was sprayed before adding 50 μl cell culture medium (phenol red free RPMI-1640, 10% FBS, 2 mM L-Glutamine and 50 μg/ml Gentamycin) containing 20000 cells per well of Ba/F3-Flt3-transfected cells. Cells were put in an incubator at 37° C. and 5% CO2. After 24 hours, 10 μl of Alamar Blue solution (0.5 mM K3Fe(CN)6, 0.5 mM KaFe(CN)6, 0.15 mM Resazurin and 100 mM Phosphate Buffer) was added to the wells, incubated for 4 hours at 37° C. and 5% CO2 before RFU's (Relative Fluorescence Units) (ex. 540 nm., em. 590 nm.) were measured in a flurorescence plate reader.
As a counterscreen the same experiment was performed in the presence of 10 ng/ml murine IL3.
as §2, with “a 96” for “a 384”, “plate, 180” for “plate, 100 nl of compound dilution in DMSO was sprayed before adding 50”, “containing 10000” for “containing 20000”, “Ba/F3-Flt3-transfected cells were pipette and 20 μl of compound dilution in DMSO was added.” for “Ba/F3-Flt3-transfected cells.”, “hours, 40” for “hours, 10”

[2] = target: T1, Ba/F3-Flt3-transfected cells (Homo sapiens, UniProt P36888, cells depend on it, form not given); assay: Ba/F3-Flt3 (minus IL3) cellular proliferation assay, Alamar Blue; type: cell-based
T1 sequence (P36888 1-993): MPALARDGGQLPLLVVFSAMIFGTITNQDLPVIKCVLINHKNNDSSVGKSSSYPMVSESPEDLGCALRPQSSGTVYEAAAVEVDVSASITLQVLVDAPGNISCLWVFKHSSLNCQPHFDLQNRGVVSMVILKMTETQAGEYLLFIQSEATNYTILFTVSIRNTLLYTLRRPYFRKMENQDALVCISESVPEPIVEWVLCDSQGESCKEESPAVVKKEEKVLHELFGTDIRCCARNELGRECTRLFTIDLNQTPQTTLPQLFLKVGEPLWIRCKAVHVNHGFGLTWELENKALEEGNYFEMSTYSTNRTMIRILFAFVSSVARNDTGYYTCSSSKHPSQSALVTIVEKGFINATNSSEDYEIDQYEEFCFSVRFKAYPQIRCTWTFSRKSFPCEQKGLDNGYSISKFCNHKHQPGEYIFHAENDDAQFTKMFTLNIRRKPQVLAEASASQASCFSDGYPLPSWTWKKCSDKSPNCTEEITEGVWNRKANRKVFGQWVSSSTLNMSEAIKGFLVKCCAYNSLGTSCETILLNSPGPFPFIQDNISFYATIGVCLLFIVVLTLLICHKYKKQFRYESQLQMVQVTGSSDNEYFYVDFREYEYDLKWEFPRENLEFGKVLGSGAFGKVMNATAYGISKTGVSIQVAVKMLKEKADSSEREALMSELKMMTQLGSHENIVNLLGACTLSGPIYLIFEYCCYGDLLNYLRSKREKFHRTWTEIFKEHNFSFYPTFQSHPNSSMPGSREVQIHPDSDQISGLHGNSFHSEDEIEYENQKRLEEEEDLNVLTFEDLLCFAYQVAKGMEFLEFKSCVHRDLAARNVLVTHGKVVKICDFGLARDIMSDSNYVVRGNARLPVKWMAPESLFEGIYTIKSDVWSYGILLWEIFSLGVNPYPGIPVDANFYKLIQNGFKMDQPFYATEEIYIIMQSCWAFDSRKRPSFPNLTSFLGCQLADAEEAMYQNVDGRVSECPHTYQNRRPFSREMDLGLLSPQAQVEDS
Method: as §1
Cells were put in an incubator at 37° C. and 5% CO2. After 24 hours, 10 μl of Alamar Blue solution (0.5 mM K3Fe(CN)6, 0.5 mM KaFe(CN)6, 0.15 mM Resazurin and 100 mM Phosphate Buffer) was added to the wells, incubated for 4 hours at 37° C. and 5% CO2 before RFU's (Relative Fluorescence Units) (ex. 540 nm., em. 590 nm.) were measured in a flurorescence plate reader. […]
as §2, with “a 96” for “a 384”, “plate, 180” for “plate, 100 nl of compound dilution in DMSO was sprayed before adding 50”, “containing 10000” for “containing 20000”, “Ba/F3-Flt3-transfected cells were pipette and 20 μl of compound dilution in DMSO was added.” for “Ba/F3-Flt3-transfected cells.”, “hours, 40” for “hours, 10”

Chain of KDR (h) (VEGFR2) (P35968 20-1356): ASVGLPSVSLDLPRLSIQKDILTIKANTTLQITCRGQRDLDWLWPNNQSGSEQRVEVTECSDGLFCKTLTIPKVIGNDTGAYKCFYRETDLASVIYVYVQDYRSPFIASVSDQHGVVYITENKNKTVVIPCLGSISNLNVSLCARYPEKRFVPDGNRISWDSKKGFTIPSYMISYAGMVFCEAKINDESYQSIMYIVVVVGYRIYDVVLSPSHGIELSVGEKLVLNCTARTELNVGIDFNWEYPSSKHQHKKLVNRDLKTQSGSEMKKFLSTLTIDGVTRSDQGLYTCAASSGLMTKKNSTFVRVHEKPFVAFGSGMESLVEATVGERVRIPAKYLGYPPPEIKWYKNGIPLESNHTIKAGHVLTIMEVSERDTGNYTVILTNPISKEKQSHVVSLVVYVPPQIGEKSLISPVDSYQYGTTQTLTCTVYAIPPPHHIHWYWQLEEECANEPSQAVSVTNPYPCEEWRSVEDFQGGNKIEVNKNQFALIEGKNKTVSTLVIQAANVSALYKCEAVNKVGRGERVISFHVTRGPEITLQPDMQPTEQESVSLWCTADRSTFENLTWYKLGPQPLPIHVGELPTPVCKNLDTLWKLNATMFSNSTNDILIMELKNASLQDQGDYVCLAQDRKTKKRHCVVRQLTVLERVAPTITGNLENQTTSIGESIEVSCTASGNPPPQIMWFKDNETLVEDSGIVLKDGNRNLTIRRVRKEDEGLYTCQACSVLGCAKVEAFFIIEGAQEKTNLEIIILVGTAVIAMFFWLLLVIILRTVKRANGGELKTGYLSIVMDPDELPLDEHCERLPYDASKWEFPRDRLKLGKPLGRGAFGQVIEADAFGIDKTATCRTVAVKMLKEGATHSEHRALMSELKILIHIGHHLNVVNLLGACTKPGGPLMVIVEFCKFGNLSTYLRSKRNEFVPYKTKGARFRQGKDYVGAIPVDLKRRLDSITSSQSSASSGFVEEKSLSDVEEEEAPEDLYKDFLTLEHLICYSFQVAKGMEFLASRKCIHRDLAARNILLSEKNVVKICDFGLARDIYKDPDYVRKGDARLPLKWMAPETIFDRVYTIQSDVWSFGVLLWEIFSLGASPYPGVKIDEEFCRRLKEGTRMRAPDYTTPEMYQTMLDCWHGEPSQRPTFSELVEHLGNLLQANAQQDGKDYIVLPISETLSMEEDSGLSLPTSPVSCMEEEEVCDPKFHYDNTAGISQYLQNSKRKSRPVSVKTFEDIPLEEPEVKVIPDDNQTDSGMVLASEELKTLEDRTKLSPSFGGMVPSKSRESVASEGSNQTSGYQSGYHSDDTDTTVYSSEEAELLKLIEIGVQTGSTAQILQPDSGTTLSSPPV

Compound	IC50 (KDR (h) (VEGFR2))	BAF3-FLT3 (MIN IL3) 384 well pIC50 ([2]; minus IL3)	IC50 ([1]; plus 10 ng/ml murine IL3)	also measured
COCC(CN(c1cc(OC)cc(OC)c1)c1ccc2ncc(-c3cccnc3)nc2c1)OC(C)=O (single isomer, unassigned) [Compound 76]	389 nM	<5		BAF3-FLT3 (PLUS IL3) 384 well pIC50 ([1]; plus 10 ng/ml murine IL3): <5
COc1cc(OC)cc(N(CCCNCC(F)(F)F)c2ccc3ncc(-c4cnc(OC)nc4)nc3c2)c1 [Compound 26]	> 1000 nM		> 10000 nM	
COc1cc(OC)cc(N(CC2CC2)c2ccc3ncc(NC(=O)c4ccc(F)cc4)nc3c2)c1 [Compound 28]	> 10000 nM	<5	> 10000 nM	BAF3-FLT3 (MIN IL3) 96 well pIC50 ([2]; minus IL3): <5
CO/N=C(\C)c1cnc2ccc(N(CCO)c3cc(OC)cc(OC)c3)cc2n1 [Compound 29]	> 1000 nM	<5	> 10000 nM	
COc1cc(OC)cc(N(CC2CC2)c2ccc3ncc(-c4ccnc(N5CCN(C)CC5)c4)nc3c2)c1 [Compound 37]	1380 nM			IC50 ([1]; plus IL3, 384 well): 7940 nM; BAF3-FLT3 (MIN IL3) 96 well pIC50 ([2]; minus IL3, 96 well): 5.59; BAF3-FLT3 (MIN IL3) 384 well pIC50 ([2]; minus IL3, 384 well): 5.05
COc1cc(OC)cc(N(CC2CC2)c2ccc3ncc(-c4c[nH]cn4)nc3c2)c1 [Compound 39]	2950 nM	<5	> 10000 nM	BAF3-FLT3 (MIN IL3) 96 well pIC50 ([2]; minus IL3): <5
COc1cc(OC)cc(N(CCO)c2ccc3ncc(N4CCC(CN)CC4)nc3c2)c1 [Compound 84]	> 1000 nM	<5		
COc1cc(OC)cc(N(CC2CC2)c2ccc3ncc(-c4nnc(C)o4)nc3c2)c1 [Compound 85]	8320 nM			BAF3-FLT3 (MIN IL3) 96 well pIC50 ([2]; minus IL3, 96 well): <5; BAF3-FLT3 (MIN IL3) 384 well pIC50 ([2]; minus IL3, 384 well): <5
COc1cc(OC)cc(N(CC2CC2)c2ccc3ncc(-c4ccc5[nH]ccc5c4)nc3c2)c1 [Compound 86]	> 10000 nM			BAF3-FLT3 (MIN IL3) 96 well pIC50 ([2]; minus IL3, 96 well): <5; BAF3-FLT3 (MIN IL3) 384 well pIC50 ([2]; minus IL3, 384 well): <5
COc1cc(OC)cc(N(CC2CC2)c2ccc3ncc(-c4ccc5c(c4)OCO5)nc3c2)c1 [Compound 87]	> 10000 nM			BAF3-FLT3 (MIN IL3) 384 well pIC50 ([2]; minus IL3, 384 well): <5.4
COc1cc(OC)cc(N(CC2CC2)c2ccc3ncc(-c4cnc5[nH]ccc5c4)nc3c2)c1 [Compound 88]	> 10000 nM			BAF3-FLT3 (MIN IL3) 96 well pIC50 ([2]; minus IL3, 96 well): <5; BAF3-FLT3 (MIN IL3) 384 well pIC50 ([2]; minus IL3, 384 well): <5
COc1cc(OC)cc(N(CC2CC2)c2ccc3ncc(-n4cccn4)nc3c2)c1 [Compound 95]	> 10000 nM	<5		BAF3-FLT3 (MIN IL3) 96 well pIC50 ([2]; minus IL3): <5
COc1cc(OC)cc(N(CCCO)c2ccc3ncc(-c4cnc(N5CCN(C)CC5)c(C)c4)nc3c2)c1 [Compound 135]	170 nM	5.43		
COc1cc(OC)cc(N(CCCO)c2ccc3ncc(-c4ccnc(Cl)c4)nc3c2)c1 [Compound 136]	776 nM		> 10000 nM	
COc1cc(OC)cc(N(CCCNC(C)C)c2ccc3ncc(-c4ccnc(NC(=O)OC(C)(C)C)c4)nc3c2)c1 [Compound 137]	275 nM	5.91		
COc1cc(OC)cc(N(CCO)c2ccc3ncc(-c4ccnc(C(=O)NCCCCCN)c4)nc3c2)c1 [Compound 138]	759 nM	<5		
COc1cc(OC)cc(N(CCCO)c2ccc3ncc(-c4ccnc(F)c4)nc3c2)c1 [Compound 142]	347 nM		> 10000 nM	
COc1cc(OC)cc(N(CCNC(C)C)c2ccc3ncc(-c4ccn[nH]4)nc3c2)c1 [Compound 189]	126 nM			

Further lines, with some results ahead:

IC50 (KDR (h) (VEGFR2))	BAF3-FLT3 (MIN IL3) 384 well pIC50 ([2]; minus IL3)	Compound	IC50 ([1]; plus 10 ng/ml murine IL3)	also measured
295 nM	<5	COCC(O)CN(c1cc(OC)cc(OC)c1)c1ccc2ncc(-c3cccnc3)nc2c1 (single isomer, unassigned) [Compound 46]	> 10000 nM	
339 nM	<5	COCC(O)CN(c1cc(OC)cc(OC)c1)c1ccc2ncc(-c3cccnc3)nc2c1 (single isomer, unassigned) [Compound 47]		BAF3-FLT3 (PLUS IL3) 384 well pIC50 ([1]; plus 10 ng/ml murine IL3): <5
> 1000 nM	<5	COCC(CN(c1cc(OC)cc(OC)c1)c1ccc2ncc(-c3cccnc3)nc2c1)OC(C)=O (single isomer, unassigned) [Compound 52]	> 10000 nM	
> 1000 nM	<5	COc1cc(OC)cc(N(CC#Cc2ncccn2)c2ccc3ncc(-c4cccnc4)nc3c2)c1 [Compound 2]	> 10000 nM	
126 nM	<5	COc1cc(OC)cc(N(CCCNCC(F)(F)F)c2ccc3ncc(-c4ccn(C)c4)nc3c2)c1 [Compound 5]	> 10000 nM	
170 nM	<5	COc1cc(OC)cc(N(CCO)c2ccc3ncc(-c4ccc(N5CCOCC5)nc4)nc3c2)c1 [Compound 19]	> 10000 nM	
1660 nM		COc1cc(OC)cc(N(CC2CC2)c2ccc3ncc(C#Cc4cncn4C)nc3c2)c1 [Compound 22]		IC50 ([1]; plus IL3, 384 well): > 10000 nM; BAF3-FLT3 (MIN IL3) 96 well pIC50 ([2]; minus IL3, 96 well): <5; BAF3-FLT3 (MIN IL3) 384 well pIC50 ([2]; minus IL3, 384 well): <5
> 10000 nM	<5	COc1cc(OC)cc(N(CC2CC2)c2ccc3ncc(C(=O)Nc4cncn4C)nc3c2)c1 [Compound 27]	> 10000 nM	BAF3-FLT3 (MIN IL3) 96 well pIC50 ([2]; minus IL3): <5
229 nM	<5	COc1cc(OC)cc(N(CCN2CCOCC2)c2ccc3ncc(-c4ccc(NC(=O)N5CCOCC5)nc4)nc3c2)c1 [Compound 35]	> 10000 nM	
708 nM	<5	COc1cc(OC)cc(N(CCO)c2ccc3ncc(-n4cnc(CO)c4)nc3c2)c1 [Compound 38]	> 10000 nM	
22.4 nM		COc1cc(OC)cc(N(CCN)c2ccc3ncc(-c4ccn(C)c4)nc3c2)c1 [Compound 79]	> 10000 nM	
> 10000 nM		COc1cc(OC)cc(N(CC2CC2)c2ccc3ncc(-c4ccnc(N5CCOCC5)c4)nc3c2)c1 [Compound 90]		BAF3-FLT3 (MIN IL3) 96 well pIC50 ([2]; minus IL3, 96 well): <5
1950 nM	<5	COc1cc(OC)cc(N(CC2CC2)c2ccc3ncc(-c4cccc(N5CCOCC5)c4)nc3c2)c1 [Compound 92]		BAF3-FLT3 (MIN IL3) 96 well pIC50 ([2]; minus IL3): <5
